Measured values: the supplement of paper PMC10307832

Columns and labels:
Assay in all cases: relative viability (nuclei count vs DMSO), 5 days (fraction); higher = more cells survive
[1] = compound: COc1cc2c(Oc3ccc4[nH]c(C)cc4c3F)ncnc2cc1OCCCN1CCCC1 [Cediranib] + CC(=O)c1c(C)c2cnc(Nc3ccc(N4CCNCC4)cn3)nc2n(C2CCCC2)c1=O [Palbociclib] (partner 0.5 µM)
How it was run: (§1)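 One day after seeding in 1536-well plates, lung cancer cell lines were dosed by pin tool. Dosing was either single-drug or a fixed anchor-drug dose plus five library-drug doses (not always all listed) in √10 steps. After 5 days, nuclei were stained in one fix-and-stain step and counted on 4× images, and relative viability is the nuclei count of treated wells over that of vehicle wells, given as the median of duplicate plates.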

[2] = compound: COc1cc2c(Oc3ccc4[nH]c(C)cc4c3F)ncnc2cc1OCCCN1CCCC1 [Cediranib] + CC(=O)Nc1cccc(-n2c(=O)n(C3CC3)c(=O)c3c(Nc4ccc(I)cc4F)n(C)c(=O)c(C)c32)c1 [Trametinib] (partner 0.02 µM)
How it was run: as §1

[3] = compound: COc1cc2c(Oc3ccc4[nH]c(C)cc4c3F)ncnc2cc1OCCCN1CCCC1 [Cediranib] + N=C(N)NC(=N)NCCc1ccccc1 [Phenformin] (partner 250 µM)
How it was run: as §1

[4] = compound: COc1cc2c(Oc3ccc4[nH]c(C)cc4c3F)ncnc2cc1OCCCN1CCCC1 [Cediranib] + Nc1nc2[nH]cc(CCc3ccc(C(=O)N[C@@H](CCC(=O)O)C(=O)O)cc3)c2c(=O)[nH]1 [Pemetrexed] (partner 0.2 µM)
How it was run: as §1

Cell Line: EMC-BAC-2
- relative viability ([1]; first compound 0.04 µM): 0.519
- relative viability ([1]; first compound 0.1265 µM): 0.562
- relative viability ([1]; first compound 0.4 µM): 0.529
- relative viability ([1]; first compound 1.265 µM): 0.51
- relative viability ([1]; first compound 4 µM): 0.499
- relative viability ([2]; first compound 0.04 µM): 0.823
- relative viability ([2]; first compound 0.4 µM): 0.842
- relative viability ([2]; first compound 1.265 µM): 0.82
- relative viability ([2]; first compound 4 µM): 0.923
- relative viability ([3]; first compound 0.04 µM): 0.507
- relative viability ([3]; first compound 0.1265 µM): 0.583
- relative viability ([3]; first compound 0.4 µM): 0.535
- relative viability ([3]; first compound 1.265 µM): 0.484
- relative viability ([3]; first compound 4 µM): 0.436
- relative viability ([4]; first compound 0.04 µM): 0.565
- relative viability ([4]; first compound 0.1265 µM): 0.47
- relative viability ([4]; first compound 0.4 µM): 0.433
- relative viability ([4]; first compound 1.265 µM): 0.464
- relative viability ([4]; first compound 4 µM): 0.477

Cell Line: NCI-H1734
- relative viability ([1]; first compound 0.04 µM): 0.322
- relative viability ([1]; first compound 0.1265 µM): 0.348
- relative viability ([1]; first compound 0.4 µM): 0.383
- relative viability ([1]; first compound 1.265 µM): 0.356
- relative viability ([1]; first compound 4 µM): 0.305
- relative viability ([2]; first compound 0.04 µM): 0.658
- relative viability ([2]; first compound 0.1265 µM): 0.663
- relative viability ([2]; first compound 0.4 µM): 0.71
- relative viability ([2]; first compound 1.265 µM): 0.633
- relative viability ([2]; first compound 4 µM): 0.683
- relative viability ([3]; first compound 0.04 µM): 0.403
- relative viability ([3]; first compound 0.1265 µM): 0.458
- relative viability ([3]; first compound 0.4 µM): 0.383
- relative viability ([3]; first compound 1.265 µM): 0.388
- relative viability ([3]; first compound 4 µM): 0.433
- relative viability ([4]; first compound 0.04 µM): 0.472
- relative viability ([4]; first compound 0.1265 µM): 0.409
- relative viability ([4]; first compound 0.4 µM): 0.412
- relative viability ([4]; first compound 1.265 µM): 0.425
- relative viability ([4]; first compound 4 µM): 0.425

Cell Line: NCI-H1395
- relative viability ([1]; first compound 0.04 µM): 0.622
- relative viability ([1]; first compound 0.1265 µM): 0.615
- relative viability ([1]; first compound 0.4 µM): 0.629
- relative viability ([1]; first compound 1.265 µM): 0.623
- relative viability ([1]; first compound 4 µM): 0.535
- relative viability ([2]; first compound 0.04 µM): 1.05
- relative viability ([2]; first compound 0.1265 µM): 1.04
- relative viability ([2]; first compound 0.4 µM): 0.999
- relative viability ([2]; first compound 1.265 µM): 0.954
- relative viability ([2]; first compound 4 µM): 0.904
- relative viability ([3]; first compound 0.04 µM): 0.49
- relative viability ([3]; first compound 0.1265 µM): 0.427
- relative viability ([3]; first compound 0.4 µM): 0.467
- relative viability ([3]; first compound 1.265 µM): 0.444
- relative viability ([3]; first compound 4 µM): 0.42
- relative viability ([4]; first compound 0.04 µM): 0.915
- relative viability ([4]; first compound 0.1265 µM): 0.985
- relative viability ([4]; first compound 0.4 µM): 0.825
- relative viability ([4]; first compound 1.265 µM): 0.76
- relative viability ([4]; first compound 4 µM): 0.801

Cell Line: HOP-62
- relative viability ([1]; first compound 0.04 µM): 0.482
- relative viability ([1]; first compound 0.1265 µM): 0.517
- relative viability ([1]; first compound 0.4 µM): 0.409
- relative viability ([1]; first compound 1.265 µM): 0.426
- relative viability ([1]; first compound 4 µM): 0.486
- relative viability ([2]; first compound 0.04 µM): 0.442
- relative viability ([2]; first compound 0.1265 µM): 0.404
- relative viability ([2]; first compound 0.4 µM): 0.346
- relative viability ([2]; first compound 1.265 µM): 0.387
- relative viability ([2]; first compound 4 µM): 0.42
- relative viability ([3]; first compound 0.04 µM): 0.703
- relative viability ([3]; first compound 0.1265 µM): 0.607
- relative viability ([3]; first compound 0.4 µM): 0.647
- relative viability ([3]; first compound 1.265 µM): 0.632
- relative viability ([3]; first compound 4 µM): 0.741
- relative viability ([4]; first compound 0.04 µM): 0.576
- relative viability ([4]; first compound 0.1265 µM): 0.305
- relative viability ([4]; first compound 0.4 µM): 0.252
- relative viability ([4]; first compound 1.265 µM): 0.39
- relative viability ([4]; first compound 4 µM): 0.313
